# Data published in patent publication US8592174B2, “Peptidase substrates” (bioMérieux, S.A., priority 2009, dated 2013).
# Key:
# Type in all cases: cell-based
# [1] = system: Yersinia enterocolitica NCTC 11 176; assay: Peptidase detection on Columbia medium (Example 2); design: key to Growth: NG: No growth; 0.5: weak growth; 1: moderate growth; 2: good growth; settings: 40 mg in 400 ml Columbia; 24 h 37° C.
# Procedure: (§2) The 6 media were distributed into Petri dishes 90 mm in diameter, in a proportion of 20 ml per dish.
# (§3) Seventeen strains of microorganisms stemming from collections and belonging to various species of bacteria and yeasts are inoculated in spots of approximately 10 000 colony-forming units.
# (§4) The media are incubated for 24 hours at 37° C., and then the colonies formed are examined visually, with or without the addition of acid and under a UV lamp at 365 nm.
# [2] = system: Candida glabrata NCPF 3 943; assay: Peptidase detection on Columbia medium (Example 2); design: key to Growth: NG: No growth; 0.5: weak growth; 1: moderate growth; 2: good growth; key to Fluo. / Color / Color post-acid.: —: no color; settings: 40 mg in 400 ml Columbia; 24 h 37° C.
# Procedure: as §2, §3, §4
# [3] = system: Streptococcus pyogenes NCTC 8 306; assay: Peptidase detection on Columbia medium (Example 2); design: key to Growth: NG: No growth; 0.5: weak growth; 1: moderate growth; 2: good growth; settings: 40 mg in 400 ml Columbia; 24 h 37° C.
# Procedure: as §2, §3, §4
# [4] = system: Serratia marcescens NCTC 10 211; assay: Peptidase detection on Columbia medium (Example 2); design: key to Growth: NG: No growth; 0.5: weak growth; 1: moderate growth; 2: good growth; settings: 40 mg in 400 ml Columbia; 24 h 37° C.
# Procedure: as §2, §3, §4
# [5] = system: Enterococcus faecium NCTC 7 171; assay: Peptidase detection on Columbia medium (Example 2); design: key to Growth: NG: No growth; 0.5: weak growth; 1: moderate growth; 2: good growth; key to Fluo. / Color / Color post-acid.: —: no color; settings: 40 mg in 400 ml Columbia; 24 h 37° C.
# Procedure: as §2, §3, §4
# [6] = system: Buttiauxella agrestis 05 04 166; assay: pH variation detection on modified chromID Coli medium (Example 6); design: Coloration strength: key to the marks not given beside the values; settings: 50 mg/l, 24 h 37° C.
# Procedure: (§1) The media were incubated for 24 hours at 37° C., then the spots formed were examined visually.
# [7] = system: Rahnella aquatilis 05 04 103; assay: as above; design: Coloration strength: key to the marks not given beside the values; settings: 50 mg/l, 24 h 37° C.
# Procedure: as §1
# [8] = system: Shigella sonnei 92 11 060; assay: as above; design: Coloration strength: key to the marks not given beside the values; settings: 50 mg/l, 24 h 37° C.
# Procedure: as §1
# [9] = system: Escherichia hermannii 04 03 161; assay: as above; design: Coloration strength: key to the marks not given beside the values; settings: 50 mg/l, 24 h 37° C.
# Procedure: as §1
# [10] = system: Klebsiella pneumoniae ssp pneumoniae 73 08 012; assay: as above; design: Coloration strength: key to the marks not given beside the values; settings: 50 mg/l, 24 h 37° C.
# Procedure: as §1
# [11] = system: Citrobacter koseri 75 08 021; assay: as above; design: Coloration strength: key to the marks not given beside the values; settings: 50 mg/l, 24 h 37° C.
# Procedure: as §1
# [12] = system: Enterobacter cloacae 05 09 064; assay: as above; design: Coloration strength: key to the marks not given beside the values; settings: 50 mg/l, 24 h 37° C.
# Procedure: as §1
# [13] = system: E. coli 77 05 035; assay: as above; design: Coloration strength: key to the marks not given beside the values; settings: 50 mg/l, 24 h 37° C.
# Procedure: as §1
# [14] = system: Cedecea lapagei 05 04 130; assay: as above; design: Coloration strength: key to the marks not given beside the values; settings: 50 mg/l, 24 h 37° C.
# Procedure: as §1
# [15] = system: Citrobacter freundii 05 04 165; assay: as above; design: Coloration strength: key to the marks not given beside the values; settings: 50 mg/l, 24 h 37° C.
# Procedure: as §1
# [16] = system: Salmonella ser. Typhimurium 81 12 010; assay: as above; design: Coloration strength: key to the marks not given beside the values; settings: 50 mg/l, 24 h 37° C.
# Procedure: as §1
# [17] = system: E. coli 05 06 043; assay: as above; design: Coloration strength: key to the marks not given beside the values; settings: 50 mg/l, 24 h 37° C.
# Procedure: as §1
# [18] = system: Serratia liquefaciens 05 04 117; assay: as above; design: Coloration strength: key to the marks not given beside the values; settings: 50 mg/l, 24 h 37° C.
# Procedure: as §1
# [19] = system: Escherichia vulneris 85 06 777; assay: as above; design: Coloration strength: key to the marks not given beside the values; settings: 50 mg/l, 24 h 37° C.
# Procedure: as §1
# [20] = system: Shigella boydii 00 04 212; assay: as above; design: Coloration strength: key to the marks not given beside the values; settings: 50 mg/l, 24 h 37° C.
# Procedure: as §1
# [21] = system: Proteus mirabilis 04 05 048; assay: as above; design: Coloration strength: key to the marks not given beside the values; settings: 50 mg/l, 24 h 37° C.
# Procedure: as §1
# [22] = system: E. coli 78 12 004; assay: as above; design: Coloration strength: key to the marks not given beside the values; settings: 50 mg/l, 24 h 37° C.
# Procedure: as §1
# [23] = system: Providencia rettgeri 88 05 064; assay: as above; design: Coloration strength: key to the marks not given beside the values; settings: 50 mg/l, 24 h 37° C.
# Procedure: as §1
# [24] = system: Pectobacterium atrosepticum 80 12 075; assay: as above; settings: 50 mg/l, 24 h 37° C.
# Procedure: as §1
# [25] = system: Enterobacter sakazakii 05 01 020; assay: as above; settings: 50 mg/l, 24 h 37° C.
# Procedure: as §1
# [26] = system: Pseudomonas aeruginosa 89 09 041; assay: as above; settings: 50 mg/l, 24 h 37° C.
# Procedure: as §1
compound,measurement,setting,value
"C[C@H](N)C(=O)N[C@@H](C)C(=O)N[C@@H](C)C(=O)Nc1ccc(C=Cc2cc[n+](C)c3ccccc23)cc1.Cl.[Cl-] [Tri-Ala-ASQM^+, L-alanyl-L-alanyl-L-alanyl-4-(4′-amidostyryl)-N-methylquinolinium (dichloride)]",Growth,[1],2
same,Color,[2],—
same,Growth,[2],2
same,Growth,[3],2
same,Color,[4],Orange
same,Growth,[4],2
same,Color,[5],—
same,Growth,[5],2
Nc1ccc(C=Cc2ccnc3ccccc23)cc1,Color,[6],Orange
same,Coloration strength,[6],++
same,Growth,[6]; control C: ++,++
same,Color,[7],Orange
same,Coloration strength,[7],++
same,Growth,[7]; control C: ++,++
same,Color,[8],Orange
same,Coloration strength,[8],++
same,Growth,[8]; control C: ++,++
same,Color,[9],Orange
same,Coloration strength,[9],++
same,Growth,[9]; control C: ++,++
same,Color,[10],Orange
same,Coloration strength,[10],++
same,Growth,[10]; control C: ++,++
same,Color,[11],Orange
same,Coloration strength,[11],++
same,Growth,[11]; control C: ++,++
same,Color,[12],Orange
same,Coloration strength,[12],++
same,Growth,[12]; control C: ++,++
same,Color,[13],Orange
same,Coloration strength,[13],++
same,Growth,[13]; control C: ++,++
same,Color,[14],Orange
same,Coloration strength,[14],++
same,Growth,[14]; control C: ++,++
same,Color,[15],Orange
same,Coloration strength,[15],++
same,Growth,[15]; control C: ++,++
same,Color,[16],Orange
same,Coloration strength,[16],++
same,Growth,[16]; control C: ++,++
same,Color,[17],Orange
same,Coloration strength,[17],++
same,Growth,[17]; control C: ++,++
same,Color,[18],Orange
same,Coloration strength,[18],++
same,Growth,[18]; control C: ++,++
same,Color,[19],Orange
same,Coloration strength,[19],++
same,Growth,[19]; control C: ++,++
same,Color,[20],Orange
same,Coloration strength,[20],++
same,Growth,[20]; control C: ++,++
same,Color,[21],Orange
same,Coloration strength,[21],++
same,Growth,[21]; control C: ++,++
same,Color,[22],Orange
same,Coloration strength,[22],++
same,Growth,[22]; control C: ++,++
same,Color,[23],Orange
same,Coloration strength,[23],++
same,Growth,[23]; control C: ++,++
same,Coloration strength,[24],−
same,Growth,[24]; control C: −,−
same,Coloration strength,[25],−
same,Growth,[25]; control C: ++,++
same,Coloration strength,[26],−
same,Growth,[26]; control C: ++,+
